Assay results published in patent US20240327351A1, “AMIDE AND ETHER SUBSTITUTED N-(1H-INDOL-7-YL)BENZENESULFONAMIDES AND USES THEREOF” (TRIANA BIOMEDICINES, INC., priority 2021, published 2024).

Tests used:
DCAF15/RBM39 = DCAF15/RBM39 (Homo sapiens, UniProt Q14498+Q66K64); assay: AlphaLISA compound-induced DCAF15-RBM39 ternary complex formation; type: binding; details: His-tagged DCAF15 complex and biotin-carrying RBM39
Summary of the method: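 Compounds, serially diluted 3-fold from 2 mM DMSO stocks, were incubated 1 h at room temperature with His-tagged DCAF15 complex and biotinylated RBM39 (mixture at 408 nM each, 2.04×). The buffer was 50 mM HEPES pH 7.5, 100 mM NaCl, 2 mM MgCl2, 2 mM TCEP. Ni-chelate acceptor and streptavidin donor beads were added sequentially (1–2 h each), and the AlphaLISA signal was titrated.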

DCAF15 = DCAF15 (Homo sapiens, UniProt Q66K64); assay: HTRF competition assay, binary interaction between compounds and DCAF15; type: binding; details: competition with Alexa Fluor 647 tracer, His-tagged DCAF15 complex
Summary of the method: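 Compounds, 3-fold serially diluted in DMSO, competed with an Alexa Fluor 647 tracer (612 nM, 2.04× stock) for His-tagged DCAF15 complex (32 nM, 4× stock) premixed 15 min with anti-6His-Eu cryptate. Buffer was 25 mM HEPES pH 7.5, 100 mM NaCl, 0.5 mM TCEP. After 1 h at RT, the 615/666 nm ratio gave titration curves.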

RBM39 = target: T1, RBM39 (Homo sapiens, UniProt Q14498+Q66K64); assay: Western blot assay for degradation of RBM39 in HCT116 cells; type: cell-based; details: HCT-116, numeric values
T1 construct: endogenous in cells; host or cells: HCT116
T1 sequence (Q66K64 whole entry): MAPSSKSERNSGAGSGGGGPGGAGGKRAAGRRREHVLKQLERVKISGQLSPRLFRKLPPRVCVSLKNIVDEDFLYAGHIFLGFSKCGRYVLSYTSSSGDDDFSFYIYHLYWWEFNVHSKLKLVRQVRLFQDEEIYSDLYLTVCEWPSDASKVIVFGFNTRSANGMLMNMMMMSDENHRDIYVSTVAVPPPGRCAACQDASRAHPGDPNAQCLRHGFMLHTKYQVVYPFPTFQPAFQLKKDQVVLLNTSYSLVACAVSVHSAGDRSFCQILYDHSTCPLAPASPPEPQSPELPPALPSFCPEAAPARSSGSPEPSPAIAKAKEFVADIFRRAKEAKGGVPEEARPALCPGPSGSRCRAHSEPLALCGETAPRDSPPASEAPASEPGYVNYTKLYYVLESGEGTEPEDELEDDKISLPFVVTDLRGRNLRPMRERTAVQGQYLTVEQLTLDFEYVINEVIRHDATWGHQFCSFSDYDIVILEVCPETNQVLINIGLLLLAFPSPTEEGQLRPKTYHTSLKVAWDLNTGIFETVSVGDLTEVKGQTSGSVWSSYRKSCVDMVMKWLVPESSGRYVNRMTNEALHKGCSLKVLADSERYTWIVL
T1 sequence (Q14498 2-530): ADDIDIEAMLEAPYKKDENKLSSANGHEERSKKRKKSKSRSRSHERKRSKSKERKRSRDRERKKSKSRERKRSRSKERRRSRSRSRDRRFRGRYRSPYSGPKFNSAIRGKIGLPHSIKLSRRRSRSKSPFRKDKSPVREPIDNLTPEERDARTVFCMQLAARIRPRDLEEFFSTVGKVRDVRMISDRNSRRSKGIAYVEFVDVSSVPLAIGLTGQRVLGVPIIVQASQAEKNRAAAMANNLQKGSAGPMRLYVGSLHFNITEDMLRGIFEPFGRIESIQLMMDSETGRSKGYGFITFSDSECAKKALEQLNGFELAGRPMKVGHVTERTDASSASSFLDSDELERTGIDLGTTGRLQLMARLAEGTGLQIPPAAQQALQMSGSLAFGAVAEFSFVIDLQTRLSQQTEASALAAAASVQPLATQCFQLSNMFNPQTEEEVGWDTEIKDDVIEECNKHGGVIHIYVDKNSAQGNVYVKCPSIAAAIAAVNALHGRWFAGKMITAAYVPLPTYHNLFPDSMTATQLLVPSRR
T1 sequence (Q16531 whole entry, further chain): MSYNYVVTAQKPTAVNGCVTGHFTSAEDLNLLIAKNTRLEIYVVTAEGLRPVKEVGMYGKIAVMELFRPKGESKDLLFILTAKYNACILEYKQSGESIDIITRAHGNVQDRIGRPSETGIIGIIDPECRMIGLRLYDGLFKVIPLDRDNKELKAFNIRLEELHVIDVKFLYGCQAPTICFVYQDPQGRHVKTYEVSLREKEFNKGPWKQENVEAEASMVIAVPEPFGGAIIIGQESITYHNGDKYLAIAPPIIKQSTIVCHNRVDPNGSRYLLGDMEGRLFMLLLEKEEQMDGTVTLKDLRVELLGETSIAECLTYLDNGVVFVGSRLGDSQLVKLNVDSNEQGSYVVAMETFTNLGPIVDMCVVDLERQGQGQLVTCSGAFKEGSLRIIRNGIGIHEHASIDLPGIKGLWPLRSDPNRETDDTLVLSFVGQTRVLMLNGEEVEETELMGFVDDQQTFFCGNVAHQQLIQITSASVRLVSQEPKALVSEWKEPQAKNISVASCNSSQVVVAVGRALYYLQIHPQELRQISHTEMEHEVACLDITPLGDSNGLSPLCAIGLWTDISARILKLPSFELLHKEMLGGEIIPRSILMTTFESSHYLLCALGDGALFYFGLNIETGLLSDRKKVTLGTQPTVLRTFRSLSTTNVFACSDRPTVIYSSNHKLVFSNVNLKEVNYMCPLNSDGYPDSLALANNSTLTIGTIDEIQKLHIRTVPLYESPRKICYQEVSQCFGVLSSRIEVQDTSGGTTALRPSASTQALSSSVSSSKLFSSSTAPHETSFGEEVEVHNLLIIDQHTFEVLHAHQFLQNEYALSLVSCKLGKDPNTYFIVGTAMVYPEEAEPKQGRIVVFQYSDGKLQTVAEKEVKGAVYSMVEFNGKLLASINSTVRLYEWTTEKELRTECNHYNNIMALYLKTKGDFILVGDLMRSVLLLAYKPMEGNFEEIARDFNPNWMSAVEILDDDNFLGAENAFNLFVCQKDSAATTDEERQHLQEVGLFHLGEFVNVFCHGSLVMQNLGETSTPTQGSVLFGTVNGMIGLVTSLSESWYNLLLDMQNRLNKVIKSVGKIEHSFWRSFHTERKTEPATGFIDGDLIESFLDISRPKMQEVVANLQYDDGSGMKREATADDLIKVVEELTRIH
Description: HCT116 cells were used with passage numbers ranging from 13 to 25. Cells were seeded in 12-well plated at a density of 1 million cells per well in 1 mL cell culture medium containing McCoy's 5A medium (Cat. #16600082, ThermoFisher, Waltham, MA), 10% Fetal Bovine Serum (Cat. #26140, ThermoFisher, Waltham, MA) and 1% Pen-Strep (Cat. #. 15070063, ThermoFisher, Waltham, MA) and incubated overnight. The next morning, compounds were serially diluted (1:3, 9 points) in the medium separately and were prepared 2× the final assay concentration. Subsequently, 1.0 mL medium containing DMSO or the appropriate concentration of each compound was added to respective wells. The final DMSO concentration in each well was 0.1%. After 24 hour incubation with compounds, cell were harvested (approximately 90-100% confluency at the time of harvest). […] Lysates were then sonicated in a sonication bath (3 pulses of 10 sec each with 1 min incubation on ice between each pulse). Samples were then centrifuged for 20 min at 14,000 rpm for 20 min. Supernatants were then transferred to fresh microfuge tubes and stored frozen at −80° C. until use. Total protein quantitation in lysate samples was done using the BCA protein quantitation kit following the manufacturer's instructions. For polyacrylamide gel electrophoresis, each sample (15-30 […]), was diluted with Laemmli sample buffer (Cat. #. 1610747, BioRad, Hercules, CA) by adding 9 ul of lysate to 3 ul of sample buffer containing 10% β-mercaptoethanol. Samples were then denatured at 95° C. for 5 minutes in a heat block, centrifuged at 14,000 rpm for 5 min, and placed on ice. Subsequently, 12 ul of each sample was loaded on 4-20% Tris/Glycine gels and electrophoresed in 1×Tris/Glycine SDS buffer at 80 (constant) volts for 2 h. Resolved samples were then transferred from gels to PVDF membrane using the BioRad Turbo-transfer unit with the Turbo default program (Cat. #. 1704150EDU, BioRad, Hercules, CA). For immunoblotting, membranes were first blocked for 1 hour at room temperature using Odyssey Blocking Buffer (Cat. #: 927-60001, Li-cor, Lincoln, NE) with continuous rocking. Membrane was then incubated with primary antibodies, anti-RBM39 (Sigma Cat. #: HPA001591, St. Louis, MO) and anti-β-actin (Cell Signaling Cat. #3700S, Danvers, MA), diluted 1000 fold each, at 4° C. for overnight. […] Band intensity in images was quantified using the Image Studio Lite software (Version 5.2). Signal intensity for RBM-39 specific bands were normalized using the signal intensity for β-actin-specific band, and percent degradation was assessed by comparing RBM39 signal in compound-treated vs. DMSO-treated samples.

| SMILES | EC50 (DCAF15/RBM39) [nM] | IC50 (DCAF15) [nM] | Dmax (RBM39) [%] |
| --- | --- | --- | --- |
| O=C(COc1ccc(S(=O)(=O)Nc2ccc(Cl)c3c(Cl)c[nH]c23)cc1)NC1CC1 [Compound 39] | < 1000 | > 100000 | 97.6 |
| CCS(=O)(=O)CCOc1ccc(S(=O)(=O)Nc2ccc(Cl)c3c(Cl)c[nH]c23)cc1 [Compound 71] | 1000 to 10000 | 1000 to 10000 | 100 |
| O=C(NC1CC1)c1ccc(S(=O)(=O)Nc2ccc(Cl)c3c(Cl)c[nH]c23)cc1 [Compound 153] | < 1000 | 1000 to 10000 | 94.8 |
| CC(C)C[C@H](NC(=O)c1ccc(S(=O)(=O)Nc2ccc(Cl)c3c(Cl)c[nH]c23)c(F)c1)c1nc2ccccc2[nH]1 [Compound 212] | 1000 to 10000 | 1000 to 10000 | – |
| CC(C)C[C@H](NC(=O)c1cccc(S(=O)(=O)Nc2ccc(Cl)c3c(Cl)c[nH]c23)c1F)c1nc2ccccc2[nH]1 [Compound 213] | < 1000 | 1000 to 10000 | – |
| O=C(c1cccc(S(=O)(=O)Nc2ccc(Cl)c3c(Cl)c[nH]c23)c1F)N1CC(N2CCc3ccccc32)C1 [Compound 214] | 1000 to 10000 | 1000 to 10000 | – |
| O=C(c1ccc(S(=O)(=O)Nc2ccc(Cl)c3c(Cl)c[nH]c23)c(F)c1)N1CC(N2CCc3ccccc32)C1 [Compound 215] | 1000 to 10000 | 10000 to 100000 | – |
| O=C(c1cccc(S(=O)(=O)Nc2ccc(Cl)c3c(Cl)c[nH]c23)c1F)N1CC[C@H](n2ccnn2)C1 [Compound 216] | < 1000 | < 1000 | – |
| O=C(c1ccc(S(=O)(=O)Nc2ccc(Cl)c3c(Cl)c[nH]c23)c(F)c1)N1CC[C@H](n2ccnn2)C1 [Compound 217] | < 1000 | < 1000 | – |
| O=C(c1cccc(S(=O)(=O)Nc2ccc(Cl)c3c(Cl)c[nH]c23)c1)N1CCOCC1 [Compound 218] | < 1000 | 1000 to 10000 | 100 |
| O=C(c1cccc(S(=O)(=O)Nc2ccc(Cl)c3c(Cl)c[nH]c23)c1F)N1CCC(Oc2cccnc2)CC1 [Compound 219] | < 1000 | < 1000 | – |
| O=C(c1ccc(S(=O)(=O)Nc2ccc(Cl)c3c(Cl)c[nH]c23)c(F)c1)N1CCC(Oc2cccnc2)CC1 [Compound 220] | < 1000 | 1000 to 10000 | – |
| O=C(c1cccc(S(=O)(=O)Nc2ccc(Cl)c3c(Cl)c[nH]c23)c1F)N1CCC(c2ccnc(C(F)F)c2)CC1 [Compound 221] | < 1000 | < 1000 | – |
| O=C(c1ccc(S(=O)(=O)Nc2ccc(Cl)c3c(Cl)c[nH]c23)c(F)c1)N1CCC(c2ccnc(C(F)F)c2)CC1 [Compound 222] | > 100000 | > 100000 | – |
| CN1CCN(C(=O)c2ccc(S(=O)(=O)Nc3ccc(Cl)c4c(Cl)c[nH]c34)cc2)CC1 [Compound 223] | < 1000 | 1000 to 10000 | – |
| CC(C)(C)OC(=O)N1CCC2(CC1)CN(C(=O)c1cccc(S(=O)(=O)Nc3ccc(Cl)c4c(Cl)c[nH]c34)c1F)CCO2 [Compound 224] | < 1000 | 1000 to 10000 | – |

| SMILES | EC50 (DCAF15/RBM39) [nM] | IC50 (DCAF15) [nM] | Dmax (RBM39) [%] |
| --- | --- | --- | --- |
| CC(C)(C)OC(=O)N1CCC2(CC1)CN(C(=O)c1ccc(S(=O)(=O)Nc3ccc(Cl)c4c(Cl)c[nH]c34)c(F)c1)CCO2 [Compound 225] | 1000 to 10000 | 1000 to 10000 | – |
| O=C(c1cccc(S(=O)(=O)Nc2ccc(Cl)c3c(Cl)c[nH]c23)c1F)N1CCc2[nH]c(-c3ccccc3)nc2C1 [Compound 226] | < 1000 | 1000 to 10000 | – |
| O=C(c1ccc(S(=O)(=O)Nc2ccc(Cl)c3c(Cl)c[nH]c23)c(F)c1)N1CCc2[nH]c(-c3ccccc3)nc2C1 [Compound 227] | 1000 to 10000 | 1000 to 10000 | – |
| Cc1nc2c(n1C)CCN(C(=O)c1cccc(S(=O)(=O)Nc3ccc(Cl)c4c(Cl)c[nH]c34)c1F)C2 [Compound 228] | < 1000 | < 1000 | – |
| Cc1nc2c(n1C)CCN(C(=O)c1ccc(S(=O)(=O)Nc3ccc(Cl)c4c(Cl)c[nH]c34)c(F)c1)C2 [Compound 229] | < 1000 | < 1000 | – |
| CC(C)CCOc1ccc(S(=O)(=O)Nc2ccc(Cl)c3c(Cl)c[nH]c23)cc1 [Compound 230] | 1000 to 10000 | 1000 to 10000 | – |
| COCCOc1ccc(S(=O)(=O)Nc2ccc(Cl)c3c(Cl)c[nH]c23)cc1Br [Compound 231] | 1000 to 10000 | 1000 to 10000 | – |
| CCOCCOc1ccc(S(=O)(=O)Nc2ccc(Cl)c3c(Cl)c[nH]c23)cc1C(C)C [Compound 232] | 1000 to 10000 | > 100000 | – |
| CC(C)c1cc(S(=O)(=O)Nc2ccc(Cl)c3c(Cl)c[nH]c23)ccc1OCc1ccccc1 [Compound 233] | 10000 to 100000 | 10000 to 100000 | – |
| O=S(=O)(Nc1ccc(Cl)c2c(Cl)c[nH]c12)c1ccc(Oc2ccc(F)cc2)c(Br)c1 [Compound 234] | 1000 to 10000 | > 100000 | – |
| NC(=O)c1cc(Cl)cc(S(=O)(=O)Nc2ccc(Cl)c3c(Cl)c[nH]c23)c1 [Compound 235] | 1000 to 10000 | 1000 to 10000 | – |
| CNC(=O)c1cccc(S(=O)(=O)Nc2ccc(Cl)c3c(Cl)c[nH]c23)c1F [Compound 236] | < 1000 | 1000 to 10000 | – |
| CNC(=O)c1ccc(F)c(S(=O)(=O)Nc2ccc(Cl)c3c(Cl)c[nH]c23)c1 [Compound 237] | 1000 to 10000 | 10000 to 100000 | – |
| CN(C)C(=O)c1cccc(S(=O)(=O)Nc2ccc(Cl)c3c(Cl)c[nH]c23)c1 [Compound 238] | 1000 to 10000 | 1000 to 10000 | – |
| CC(C)CNC(=O)c1ccc(S(=O)(=O)Nc2ccc(Cl)c3c(Cl)c[nH]c23)cc1 [Compound 239] | < 1000 | > 100000 | – |
| CC(C)CNC(=O)c1ccc(S(=O)(=O)Nc2ccc(Cl)c3c(Cl)c[nH]c23)c(F)c1 [Compound 240] | < 1000 | 1000 to 10000 | – |
